Among the test systems are A498; A549; ACHN; CAKI-1; DU-145; EKVX; HOP-62; OVCAR-3; OVCAR-8; PC-3; SK-MEL-2; SNB-19; SR; SW-620; T47D; TK-10; UACC-257; UACC-62; LOX IMVI; RPMI-8226.
Holding throughout (test): inhibition of tumour cell growth, NCI panel, 48 h

Consider 11 compounds from ChEMBL document CHEMBL1201862, “PubChem BioAssay data set” (2004).

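1) Cells in 96-well plates. 2) Compound, 48 h, 5 concentrations. 3) Linear interpolation between surrounding doses. 4) Unreached endpoint = highest concentration. GI50 marks 50% less growth.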 The source made the active and inactive calls. Rule as the data show it: active = GI50 up to about 1.1 µM and inactive = higher.

Regarding `Cc1ccc(S(=O)(=O)NC(=O)NC2=NC(C)(C)N(c3ccc(Cl)c(Cl)c3)C(N)=N2)cc1`, the GI50 in the test with A498 is > 100 µM (inactive); with A549, 2.92 µM (inactive); in the test with ACHN, 11.1 µM (inactive); in the test on CAKI-1, 49.5 µM (inactive); in the test on DU-145, 64.4 µM (inactive); in the test with EKVX it was > 100 µM (inactive). In addition, the GI50 was 7.59 µM (inactive) in the test on HOP-62; > 100 µM (inactive) with OVCAR-3; 9.89 µM (inactive) with OVCAR-8; 0.552 µM (active) in the test on PC-3; > 100 µM (inactive) in the test with SK-MEL-2; 97.9 µM (inactive) with SNB-19. For the same compound, the GI50 with SR is 8.75 µM (inactive); in the test on SW-620, 4.66 µM (inactive); in the test with T47D, 10.4 µM (inactive); in the test on TK-10 it was 84.7 µM (inactive); with UACC-257, 36 µM (inactive); with UACC-62, 7.59 µM (inactive).

`ClCCN1CCOC1=C1C=CC=C1`: the GI50 in the test on A498, in the test with A549, in the test on ACHN, in the test with CAKI-1, with DU-145 and with EKVX was > 100 µM (inactive) in each case. Besides, the GI50 in the test with HOP-62 was 43.9 µM (inactive); in the test with LOX IMVI, > 100 µM (inactive); in the test with OVCAR-3 it was > 100 µM (inactive); in the test with OVCAR-8, > 100 µM (inactive); with PC-3, > 100 µM (inactive); in the test on RPMI-8226, > 100 µM (inactive). The GI50 was > 100 µM (inactive) with SNB-19; 19.3 µM (inactive) in the test on SR; > 100 µM (inactive) in the test on SW-620; > 100 µM (inactive) in the test with T47D; > 100 µM (inactive) in the test on UACC-257.

As for `Fc1ccc2nc3n(c2c1)C(c1c(Cl)cccc1Cl)SC3` (centres undefined), the GI50 with A498, in the test with A549, in the test with ACHN, in the test with CAKI-1, with DU-145 and in the test on HOP-62 was > 100 µM (inactive) each time. The GI50 in the test on LOX IMVI, in the test with OVCAR-3, in the test on OVCAR-8, in the test on PC-3, in the test on RPMI-8226 and in the test on SK-MEL-2 was > 100 µM (inactive) in each case. For the same compound, the GI50 is > 100 µM (inactive) in the test with SNB-19; 4.3 µM (inactive) with SR; > 100 µM (inactive) in the test with SW-620; > 100 µM (inactive) in the test with T47D; > 100 µM (inactive) with TK-10; > 100 µM (inactive) with UACC-257. For the same compound, the GI50 in the test on UACC-62 was > 100 µM (inactive).

Take `CCOC(=O)c1ccc(Nc2cnc3cc(C(F)(F)F)ccc3n2)cc1`: the GI50 in the test with A498, with A549, in the test with ACHN, in the test with CAKI-1, in the test with DU-145 and in the test on EKVX was > 100 µM (inactive) each time. Moreover, the GI50 in the test on HOP-62, in the test with LOX IMVI, in the test with OVCAR-3, in the test on OVCAR-8, in the test with PC-3 and in the test on RPMI-8226 was > 100 µM (inactive) throughout. Moreover, the GI50 with SR, in the test with SW-620, in the test with T47D, in the test on TK-10, in the test with UACC-257 and in the test with UACC-62 was > 100 µM (inactive) throughout.

For the compound `Cn1cc(-c2ccc(CCOC3CCCCO3)cc2)c2c(C#N)cccc21` (centres undefined), the GI50 was 61.2 µM (inactive) in the test on A498; 31 µM (inactive) in the test on A549; > 100 µM (inactive) with CAKI-1; > 100 µM (inactive) with DU-145; 35.6 µM (inactive) in the test on EKVX; > 100 µM (inactive) in the test with HOP-62. Also, the GI50 in the test on LOX IMVI is 41.9 µM (inactive); in the test with OVCAR-3, 67.8 µM (inactive); in the test with OVCAR-8 it was > 100 µM (inactive); in the test on PC-3, 27.2 µM (inactive); with RPMI-8226, 41.9 µM (inactive); with SK-MEL-2 it was 28.7 µM (inactive). The GI50 is > 100 µM (inactive) in the test with SNB-19; 17.2 µM (inactive) in the test with SR; 28.5 µM (inactive) in the test on SW-620; 21.3 µM (inactive) in the test on T47D; 48.3 µM (inactive) with TK-10; 24.7 µM (inactive) with UACC-257. Besides, the GI50 in the test on UACC-62 is 44.6 µM (inactive).

Take `Cc1ccc(S(=O)(=O)N(CC(O)COc2ccccc2)c2c(F)c(F)cc(F)c2F)cc1` (centres undefined): the GI50 is 20.3 µM (inactive) in the test on A498; 21.9 µM (inactive) with A549; 21.2 µM (inactive) in the test with ACHN; 15.3 µM (inactive) in the test with CAKI-1; 40.8 µM (inactive) with DU-145; 27.9 µM (inactive) in the test with EKVX. Also, the GI50 in the test with HOP-62 was 21.3 µM (inactive); in the test with LOX IMVI, 16.6 µM (inactive); in the test on OVCAR-3, 20.5 µM (inactive); in the test on OVCAR-8 it was 22.4 µM (inactive); with PC-3 it was 18.3 µM (inactive); in the test with RPMI-8226, 18.7 µM (inactive). The GI50 with SK-MEL-2 was 17.2 µM (inactive); in the test with SNB-19 it was 27.6 µM (inactive); in the test on SR, 3.53 µM (inactive); in the test with SW-620 it was 30.3 µM (inactive); in the test with T47D it was 19.7 µM (inactive); with TK-10 it was 32.9 µM (inactive). In addition, the GI50 with UACC-62 is 16.6 µM (inactive).

Consider `CCOC(=O)C1(C(N)=O)C(=O)c2ccncc2C1=O` (centres undefined), for which the GI50 in the test with A498, in the test on A549, in the test on ACHN, in the test on CAKI-1, in the test with DU-145 and in the test on EKVX was > 100 µM (inactive) throughout. For the same compound, the GI50 in the test with LOX IMVI, with OVCAR-3, in the test with OVCAR-8, with PC-3, with RPMI-8226 and in the test on SK-MEL-2 was > 100 µM (inactive) in each case. Besides, the GI50 with SNB-19, in the test with SR, in the test with SW-620, with T47D, in the test on UACC-257 and in the test on UACC-62 was > 100 µM (inactive) in each case.

For the compound `O=C(c1ccccc1)N1C(=S)NC(=N/c2ccccc2)/C1=N\c1ccccc1`, the GI50 in the test on A498, in the test on A549, in the test with ACHN, in the test with CAKI-1, in the test on DU-145 and in the test with EKVX was > 100 µM (inactive) each time. For the same compound, the GI50 with HOP-62, with LOX IMVI, in the test with OVCAR-8, in the test on PC-3, with RPMI-8226 and in the test with SK-MEL-2 was > 100 µM (inactive) each time. The GI50 in the test with SNB-19, in the test on SR, in the test on SW-620, with T47D, in the test on TK-10 and with UACC-257 was > 100 µM (inactive) in each case. Also, the GI50 in the test on UACC-62 was > 100 µM (inactive).

Turning to `CC(C)NC(=O)OCc1c2c(n(C)c1COC(=O)NC(C)C)-c1cc(Cl)c(Cl)cc1CC2`, the GI50 in the test on A498 was 6.37 µM (inactive); with A549 it was 61 µM (inactive); in the test with ACHN, 34.2 µM (inactive); in the test on DU-145, 70.8 µM (inactive); in the test on EKVX, 33.3 µM (inactive); in the test on HOP-62, 54.5 µM (inactive). Further, the GI50 in the test with LOX IMVI was 38.3 µM (inactive); in the test on OVCAR-3 it was 29.1 µM (inactive); in the test on OVCAR-8, 31 µM (inactive); with PC-3 it was 32.9 µM (inactive); in the test with RPMI-8226, 23.4 µM (inactive); with SK-MEL-2, 25.2 µM (inactive). The GI50 in the test on SNB-19 was 37.8 µM (inactive); in the test on SR, > 100 µM (inactive); in the test on SW-620, 45.7 µM (inactive); in the test with T47D, 22.6 µM (inactive); in the test with TK-10 it was 25.2 µM (inactive); in the test with UACC-257 it was 28.4 µM (inactive). The GI50 in the test on UACC-62 was 43.9 µM (inactive).

For `N#Cc1ccc(/C=[N+](/C=c2ccc(=C=[N-])cc2)N(CCO)C2=NCCN2)cc1`, the GI50 in the test with A498, with A549, with ACHN, in the test with CAKI-1, in the test on DU-145 and in the test on EKVX was > 100 µM (inactive) throughout. For the same compound, the GI50 with HOP-62, in the test with LOX IMVI, in the test on OVCAR-3, in the test on OVCAR-8, in the test on PC-3 and with SK-MEL-2 was > 100 µM (inactive) throughout. Moreover, the GI50 in the test with SNB-19, in the test with SR, in the test on SW-620, in the test on T47D, with TK-10 and with UACC-257 was > 100 µM (inactive) in each case. In addition, in the test on UACC-62, the GI50 was > 100 µM (inactive).

`COC1=CC(=O)c2c(cc(COP(N)(=O)N(CCBr)CCBr)n2C)C1=O` (centres undefined): the GI50 in the test on A498 is 1.26 µM (inactive); in the test with A549 it was < 0.01 µM (active); in the test with ACHN, < 0.01 µM (active); with CAKI-1 it was < 0.01 µM (active); with DU-145 it was < 0.01 µM (active); with EKVX, 0.0212 µM (active). For the same compound, the GI50 in the test with LOX IMVI is < 0.01 µM (active); in the test with OVCAR-3, 0.0822 µM (active); in the test with OVCAR-8, < 0.01 µM (active); in the test on PC-3, 1.11 µM (active); in the test on RPMI-8226, < 0.01 µM (active); in the test on SK-MEL-2, 1.7 µM (inactive). Further, the GI50 with SNB-19 is 1.3 µM (inactive); in the test on SR, < 0.01 µM (active); in the test with SW-620, < 0.01 µM (active); with T47D, < 0.01 µM (active); in the test on TK-10, 0.484 µM (active); in the test with UACC-257 it was 1.2 µM (inactive). Further, the GI50 in the test with UACC-62 was < 0.01 µM (active).
